PubChem BioAssay AID2060350 (Molecular Pharmacology Branch, DTP, NCI, 2025)
Where “and” joins values, the source holds several entries; their conditions need not be identical. Equal values may be shown once.

Test system: PDC 521955-158-R6-J3 spheroids, viability
Test: Anticancer human tumor 521955-158-R6-J3-PDC patient-derived pancreatic carcinoma cell line growth inhibition [TAK]
Conditions: spheroids with HUVEC and MSC; for viability, T/C: stronger effect = lower value
Text: Combinatorial screen of targeted agents with TAK-243 and ipatasertib in multi-cell type tumor spheroids
A high-throughput screen of multi-cell type tumor spheroids was designed to identify active combinations of targeted small molecules and TAK-243 or ipatasertib. Complex spheroids include a stromal component modeled by human endothelial cells (HUVEC) and fibroblasts modeled by human mesenchymal stem cells (MSCs). The concentration ranges selected for each drug and investigational agent were based upon clinically achievable concentrations if the clinical Cmax of the agent was known.
Compounds. The drugs and investigational agents: TAK-243 (785004), ipatasertib (767898), everolimus (733504), selumetinib (741078), bortezomib (756655), trametinib (758246), ixazomib (758254), vemurafenib (761431), dabrafenib (764134), sapanisertib (764658), alpelisib (765974), and copanlisib (816437), were obtained from the National Cancer Institute (NCI) Developmental Therapeutics Program Chemical Repository. The FDA-approved anticancer drug set is available from the NCI Developmental Therapeutics Program. […] The stock solutions were prepared in dimethyl sulfoxide (DMSO, Sigma-Aldrich, St. Louis, MO, cat. D2650) at 800-fold the tested concentration and stored at -70 degrees C prior to their use. All drugs and investigational agents were tested over a range starting from a high concentration at or near the clinical Cmax and decreasing in half-log increments. If the clinical Cmax for an agent had not been determined, the highest concentration tested was 10 microM.
NCI60 Cell Culture. NCI60 cell lines were obtained from the NCI Developmental Therapeutics Program Tumor Repository. For each lot of cells, the Repository performed Applied Biosystems AmpFLSTR Identifiler testing with PCR amplification to confirm consistency with the published Identifier STR profile for each cell line. Cells were kept in continuous culture for no more than 20 passages. The optimal seeding densities for each of the cell lines at each time point assessed were determined prior to performing the concentration response studies. Briefly, the NCI60 human tumor lines were grown as monolayers in RPMI 1640 medium supplemented with 10% FBS and 2 mmol/L L-glutamine.
An additional 2 lines were from the NCI60 cell line panel including melanomas, MALME-3M and SK-MEL-2. Pooled donor human umbilical vein endothelial cells (HUVEC, Lonza, cat. CC-2519) and human mesenchymal stem cells (hMSC, Lonza, cat. PT-2501) were purchased from Lonza (Walkersville, MD).
PDMR cell lines were grown in complete medium (DC medium): Dulbecco's modified Eagle's medium (DMEM)/F12 supplemented with 5% fetal bovine serum (FBS), 2 mM L-glutamine, 100 U/mL penicillin and 100 µg/ml streptomycin, 0.4 µg/ml hydrocortisone, 10 ng/ml epidermal growth factor (EGF) recombinant human protein, 24 µg/mL adenine, and 0.1 mg/mL primocin. During culture from frozen stock vials, PDMR cells were cultured in the same medium containing 10 µM Y-27632 (see Table 3). The PDCs were cultured in complete DMEM/F12 media without 10 microM Y-27632 dihydrochloride for at least two passages prior to the screen. The pooled donor HUVEC and hMSC were cultured in endothelial cell growth medium 2 (PromoCell, Heidelberg, Germany, cat. C-22011) and mesenchymal stem cell growth medium 2 (PromoCell, cat. C-28009), respectively. For all experiments, HUVEC and hMSC were used at passages </=5.
For the pre-screen, cell seeding densities were determined from a titration spanning the range from 5,000 to 313 cells per well. The mct-spheroids including 60% malignant cells, 25% HUVEC and 15% MSC dispensed as a mixture into U-bottom Ultra-Low Attachment 384-well plates (Corning, NY)
High-throughput Drug Combination Screening.
Prior to their inoculation into 384-well plates, malignant cells, HUVEC, and hMSC were removed from T flasks using TrypLE express (Thermo Fisher Scientific, cat. 12605036) and harvested by centrifugation for 5 min at 233 x g. […]
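Note: spheroids exposed to drugs for 7 days before readout.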
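Throughout, for viability, T/C: 100% = DMSO vehicle control viability.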

Row | SMILES | IC50 (curve of compound) | viability, T/C (compound 0.0316 µM) | viability, T/C (compound 0.1 µM) | viability, T/C (compound 0.316 µM) | viability, T/C (compound 1 µM) | viability, T/C (compound 0.000316 µM) | viability, T/C (compound 0.001 µM) | viability, T/C (compound 0.00316 µM) | viability, T/C (compound 0.01 µM) | also measured
1 | CC(=O)Nc1cccc(-n2c(=O)n(C3CC3)c(=O)c3c(Nc4ccc(I)cc4F)n(C)c(=O)c(C)c32)c1 | 26.2 nM and 29.5 nM |  |  |  |  |  |  |  |  | viability, T/C (compound 94.9 pM): 98.2% and 112%; viability, T/C (compound 0.0003 µM): 100% and 90.8%; viability, T/C (compound 0.000949 µM): 98.2% and 92.1%; viability, T/C (compound 0.003 µM): 94.2% and 82%; viability, T/C (compound 0.00949 µM): 72.4% and 68.3%; viability, T/C (compound 0.03 µM): 47% and 47.1%
2 | CC(C)(C)c1nc(-c2cccc(NS(=O)(=O)c3c(F)cccc3F)c2F)c(-c2ccnc(N)n2)s1 | > 10000 nM | 111% and 97.3% | 121% and 111% | 135% and 114% | 116% and 111% |  |  |  |  | viability, T/C (compound 3.16 µM): 108% and 98.3%; viability, T/C (compound 10 µM): 139% and 118%
3 | CC(C)CC(NC(=O)C(Cc1ccccc1)NC(=O)c1cnccn1)B(O)O (stereo not drawn) | 7.56 nM and > 10 nM |  |  |  |  | 91.6% and 103% | 108% and 93.6% | 111% and 87.4% | 33.2% and 102% | viability, T/C (compound 31.6 pM): 101% and 120%; viability, T/C (compound 0.0001 µM): 97.6% and 107%
4 | CC(C)CC(NC(=O)CNC(=O)c1cc(Cl)ccc1Cl)B1OC(=O)CC(CC(=O)O)(C(=O)O)O1 (stereo not drawn) | 49.8 nM and 46.2 nM | 75.9% and 69.7% | 10.2% and 9.97% |  |  | 105% and 101% | 101% and 102% | 110% and 100% | 114% and 107% | 
5 | CC(C)NCC(C(=O)N1CCN(c2ncnc3c2C(C)CC3O)CC1)c1ccc(Cl)cc1 (stereo not drawn) |  |  |  |  |  |  |  |  |  | viability, T/C (compound 0.3 µM): 93.8% [middle of 10 runs]; IC50 (compound alone, run of 02/20/2020): > 30000 nM; IC50 (compound alone, run of 03/19/2020): > 30000 nM
6 | CC(C)n1nc(-c2ccc3oc(N)nc3c2)c2c(N)ncnc21 | > 100 nM | 83.2% and 81.7% | 73.8% and 70.4% |  |  | 93.6% and 99.9% | 95% and 91.3% | 86% and 98.5% | 85.3% and 94.8% | 
7 | CCCS(=O)(=O)Nc1ccc(F)c(C(=O)c2c[nH]c3ncc(-c4ccc(Cl)cc4)cc23)c1F | > 100000 nM |  |  | 92.9% and 82.9% | 101% and 67% |  |  |  |  | viability, T/C (compound 3.16 µM): 88.1% and 85%; viability, T/C (compound 10 µM): 101% and 75%; viability, T/C (compound 31.6 µM): 109% and 51.8%; viability, T/C (compound 100 µM): 99.2% and 114%
8 | COC1CC2CCC(C)C(O)(O2)C(=O)C(=O)N2CCCCC2C(=O)OC(C(C)CC2CCC(OCCO)C(OC)C2)CC(=O)C(C)C=C(C)C(O)C(OC)C(=O)C(C)CC(C)C=CC=CC=C1C (stereo not drawn) | > 100 nM | 84.9% and 90.9% | 84.3% and 82.4% |  |  | 93.2% and 99% | 107% and 78.7% | 105% and 85.4% | 100% and 94.5% | 
9 | COc1c(OCCCN2CCOCC2)ccc2c3n(c(=NC(=O)c4cnc(N)nc4)nc12)CCN3 | 76.2 nM and 28.1 nM | 61.2% and 49.2% | 47.5% and 35.9% | 30.7% and 23.5% | 23.3% and 18.5% |  |  | 85.3% and 76.8% | 79.2% and 62.1% | 
10 | Cc1nc(NC(=O)N2CCCC2C(N)=O)sc1-c1ccnc(C(C)(C)C(F)(F)F)c1 (stereo not drawn) | > 10000 nM | 82.3% and 93.5% | 87.3% and 82% | 73.3% and 81.9% | 68.2% and 77.4% |  |  |  |  | viability, T/C (compound 3.16 µM): 72.5% and 67%; viability, T/C (compound 10 µM): 58.3% and 54.9%
11 | Cn1cnc2c(F)c(Nc3ccc(Br)cc3Cl)c(C(=O)NOCCO)cc21 | 1800 nM and > 3000 nM |  |  |  |  |  |  |  |  | viability, T/C (compound 0.00949 µM): 99.2% and 99.6%; viability, T/C (compound 0.03 µM): 88.9% and 88%; viability, T/C (compound 0.0949 µM): 77.6% and 83%; viability, T/C (compound 0.3 µM): 85.5% and 82.2%; viability, T/C (compound 0.949 µM): 56.9% and 70.8%; viability, T/C (compound 3 µM): 41.5% and 53.7%
